Source: patent publication US10323022B2, “Pyrrolidinyl urea, pyrrolidinyl thiourea and pyrrolidinyl guanidine compounds as TrkA kinase inhibitors” (Array BioPharma Inc., priority 2011, dated 2019)
Counter-ions that a name gives are not always drawn.

Each compound was assayed against TrkA (Homo sapiens (Human), UniProt P04629) (assay: TrkA Omnia Assay). Conditions: averaged IC50; 20 nM enzyme, 500 μM ATP, 10 μM peptide substrate.
Type: biochemical
Procedure: Trk enzymatic selectivity was assessed using Omnia™ Kinase Assay reagents from Invitrogen Corp. Enzyme (TrkA from Invitrogen Corp.) and test compound (various concentrations) were incubated for 10 minutes at ambient temperature in a 384-well white polypropylene plate (Nunc catalog#267462). Omnia Tyr Peptide #4, as well as ATP, were then added to the plate. Final concentrations were as follows: 20 nM enzyme, 500 μM of ATP, 10 μM peptide substrate. The assay buffer consisted of 25 mM MOPS pH 7.5, 0.005% (v/v) Triton X-100 and 5 mM MgCl2. The production of phosphorylated peptide was monitored continuously for 70 minutes using a Molecular Devices FlexStation II^384 microplate reader (excitation=360 nm; emission=485 nm). Initial rates were calculated from the progress curves. IC50 values were calculated from these rates using either a 4 or 5-parameter logistic curve fit.

Sequence of TrkA (P04629 33-796): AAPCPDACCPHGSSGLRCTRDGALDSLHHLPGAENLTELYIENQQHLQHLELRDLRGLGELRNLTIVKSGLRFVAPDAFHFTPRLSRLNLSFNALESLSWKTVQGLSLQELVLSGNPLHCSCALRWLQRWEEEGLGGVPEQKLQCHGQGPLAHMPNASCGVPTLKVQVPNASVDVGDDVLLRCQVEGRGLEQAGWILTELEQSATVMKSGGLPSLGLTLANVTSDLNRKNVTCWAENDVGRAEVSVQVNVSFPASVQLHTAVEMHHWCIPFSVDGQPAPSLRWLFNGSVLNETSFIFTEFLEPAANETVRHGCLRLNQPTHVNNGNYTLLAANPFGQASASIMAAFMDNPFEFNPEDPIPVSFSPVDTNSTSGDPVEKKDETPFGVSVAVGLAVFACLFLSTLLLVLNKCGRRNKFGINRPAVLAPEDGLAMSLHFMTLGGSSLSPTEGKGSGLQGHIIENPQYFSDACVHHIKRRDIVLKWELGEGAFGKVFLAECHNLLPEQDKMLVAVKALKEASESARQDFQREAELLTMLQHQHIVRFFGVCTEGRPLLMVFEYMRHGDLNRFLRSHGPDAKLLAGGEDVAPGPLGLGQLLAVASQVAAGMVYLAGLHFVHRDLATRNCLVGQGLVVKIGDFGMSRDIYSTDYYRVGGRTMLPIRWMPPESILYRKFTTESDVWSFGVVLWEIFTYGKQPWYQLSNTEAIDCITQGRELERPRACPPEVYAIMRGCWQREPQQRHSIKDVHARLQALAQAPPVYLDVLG

First: 1-((3S,4R)-4-(3,4- fluorophenyl)-1-(2- methoxyethyl)pyrrolidin-3-yl)- 3-(1-(3-chlorophenyl)-1′,4- dimethyl-1H,1′H-[3,4′- bipyrazol]-5-yl)urea [Example 321]
Second: COCCN1C[C@@H](NC(=O)Nc2cc(C(C)(C)C)nn2-c2ccc(C)cc2)[C@H](c2ccccc2)C1 (relative stereo) [Example 2, 1-(3-tert-butyl-1-p-tolyl-1H-pyrazol-5-yl)-3-(trans-1-(2-methoxyethyl)-4-phenylpyrrolidin-3-yl) urea hydrochloride]
The IC50 of the first is lower: < 0.1 µM for the first, 1 to 10 µM for the second.

`COCCN1C[C@@H](NC(=O)Nc2c3c(nn2-c2ccccc2)CCC3)[C@H](c2ccc(F)c(F)c2)C1` (relative stereo) [Example 3, trans-1-(4-(3,4-difluorophenyl)-1-(2-methoxyethyl)pyrrolidin-3-yl)-3-(2-phenyl-2,4,5,6-tetrahydrocyclopenta[c]pyrazol-3-yl)urea] and `COCCN1C[C@@H](NC(=O)Nc2cc(C(C)C)nn2-c2ccccc2)[C@H](c2ccc(F)c(F)c2)C1` (relative stereo) [Example 4, trans-1-(4-(3,4-difluorophenyl)-1-(2-methoxyethyl)pyrrolidin-3-yl)-3-(3-isopropyl-1-phenyl-1H-pyrazol-5-yl) urea] cannot be ordered by IC50: < 0.1 µM for the first, < 0.1 µM for the second.

`COCCN1C[C@@H](NC(=O)Nc2cc(C(C)(C)C)nn2C)[C@H](c2ccccc2)C1` (relative stereo) [Example 5, 1-(3-tert-butyl-1-methyl-1H-pyrazol-5-yl)-3-(trans-1-(2-methoxyethyl)-4-phenylpyrrolidin-3-yl) urea] and `COCCN1C[C@@H](NC(=O)Nc2cc(C)nn2C)[C@H](c2ccccc2)C1` (relative stereo) [Example 6, 1-(1,3-dimethyl-1H-pyrazol-5-yl)-3-(trans-1-(2-methoxyethyl)-4-phenylpyrrolidin-3-yl) urea] fall in the same range of IC50: 1 to 10 µM for the first, 1 to 10 µM for the second.

Compared with `COCCN1C[C@@H](NC(=O)Nc2cc(C(C)(C)C)nn2-c2cccnc2)[C@H](c2ccccc2)C1` (relative stereo) [Example 7, 1-(3-tert-butyl-1-(pyridin-3-yl)-1H-pyrazol-5-yl)-3-(trans-1-(2-methoxyethyl)-4-phenylpyrrolidin-3-yl) urea], `COCCN1C[C@@H](NC(=O)Nc2cc(C(C)(C)C)nn2-c2ccc(F)cc2)[C@H](c2ccccc2)C1` (relative stereo) [Example 8, 1-(3-tert-butyl-1-(4-fluorophenyl)-1H-pyrazol-5-yl)-3-(trans-1-(2-methoxyethyl)-4-phenyl-pyrrolidin-3-yl)urea] is lower in IC50: 1 to 10 µM for the first, 0.1 to 1 µM for the second.

`COCCN1C[C@@H](NC(=O)Nc2cc(C3CC3)nn2-c2ccccc2)[C@H](c2ccccc2)C1` (relative stereo) [Example 9, 1-(3-cyclopropyl-1-phenyl-1H-pyrazol-5-yl)-3-(trans-1-(2-methoxyethyl)-4-phenylpyrrolidin-3-yl)urea] and `COCCN1C[C@@H](NC(=O)Nc2cc(-c3ccccc3)nn2-c2ccccc2)[C@H](c2ccccc2)C1` (relative stereo) [Example 10, 1-(1,3-diphenyl-1H-pyrazol-5-yl)-3-(trans-1-(2-methoxyethyl)-4-phenylpyrrolidin-3-yl)urea] cannot be ordered by IC50: < 0.1 µM for the first, < 0.1 µM for the second.

`COCCN1C[C@@H](NC(=O)Nc2cc(C)nn2-c2ccccc2)[C@H](c2ccccc2)C1` (relative stereo) [Example 11, 1-(trans-1-(2-methoxyethyl)-4-phenylpyrrolidin-3-yl)-3-(3-methyl-1-phenyl-1H-pyrazol-5-yl)urea] and `COCCN1C[C@@H](NC(=O)Nc2cc(C(C)C)nn2-c2ccccc2)[C@H](c2ccccc2)C1` (relative stereo) [Example 12, 1-(3-isopropyl-1-phenyl-1H-pyrazol-5-yl)-3-(trans-1-(2-methoxyethyl)-4-phenylpyrrolidin-3-yl)urea] cannot be ordered by IC50: < 0.1 µM for the first, < 0.1 µM for the second.

`COCCN1C[C@@H](NC(=O)Nc2cc(-c3ccccc3)nn2C)[C@H](c2ccccc2)C1` (relative stereo) [Example 13, 1-(trans-1-(2-methoxyethyl)-4-phenylpyrrolidin-3-yl)-3-(1-methyl-3-phenyl-1H-pyrazol-5-yl)urea] and `COCCN1C[C@@H](NC(=O)Nc2c3c(nn2-c2ccccc2)CCC3)[C@H](c2ccccc2)C1` (relative stereo) [Example 14, 1-(trans-1-(2-methoxyethyl)-4-phenylpyrrolidin-3-yl)-3-(2-phenyl-2,4,5,6-tetrahydrocyclopenta[c]pyrazol-3-yl)urea] cannot be ordered by IC50: < 0.1 µM for the first, < 0.1 µM for the second.

Compared with `COCCN1C[C@@H](NC(=O)Nc2ccnn2-c2ccccc2)[C@H](c2ccccc2)C1` (relative stereo) [Example 15, 1-(trans-1-(2-methoxyethyl)-4-phenylpyrrolidin-3-yl)-3-(1-phenyl-1H-pyrazol-5-yl)urea], `COCCN1C[C@@H](NC(=O)Nc2cc(C(C)(C)C)nn2-c2ccccc2F)[C@H](c2ccccc2)C1` (relative stereo) [Example 16, 1-(3-tert-butyl-1-(2-fluorophenyl)-1H-pyrazol-5-yl)-3-(trans-1-(2-methoxyethyl)-4-phenylpyrrolidin-3-yl)urea] is higher in IC50: 0.1 to 1 µM for the first, 1 to 10 µM for the second. The first is the more potent here.

First: COCCN1C[C@@H](NC(=O)Nc2cc(C(C)(C)C)nn2-c2cccc(F)c2)[C@H](c2ccccc2)C1 (relative stereo) [Example 17, 1-(3-tert-butyl-1-(3-fluorophenyl)-1H-pyrazol-5-yl)-3-(trans-1-(2-methoxyethyl)-4-phenylpyrrolidin-3-yl)urea]
Second: COCCN1C[C@@H](NC(=O)Nc2c(C)c(C)nn2-c2ccccc2)[C@H](c2ccccc2)C1 (relative stereo) [Example 18, 1-(3,4-dimethyl-1-phenyl-1H-pyrazol-5-yl)-3-(trans-1-(2-methoxyethyl)-4-phenylpyrrolidin-3-yl)urea]
The IC50 of the first is higher: 0.1 to 1 µM for the first, < 0.1 µM for the second. The second is the more potent here.

Compared with `COCCN1C[C@@H](NC(=O)Nc2c3c(nn2-c2cccnc2)CCC3)[C@H](c2ccccc2)C1` (relative stereo) [Example 19, 1-(trans-1-(2-methoxyethyl)-4-phenylpyrrolidin-3-yl)-3-(2-(pyridin-3-yl)-2,4,5,6-tetrahydrocyclopenta[c]pyrazol-3-yl)urea], `COCCN1C[C@@H](NC(=O)Nc2ccnn2C)[C@H](c2ccccc2)C1` (relative stereo) [Example 20, 1-(trans-1-(2-methoxyethyl)-4-phenylpyrrolidin-3-yl)-3-(1-methyl-1H-pyrazol-5-yl)urea] is higher in IC50: 0.1 to 1 µM for the first, 1 to 10 µM for the second.

`COCCN1C[C@@H](NC(=S)Nc2c3c(nn2-c2ccccc2)CCC3)[C@H](c2ccccc2)C1` (relative stereo) [Example 21, 1-(trans-1-(2-methoxyethyl)-4-phenylpyrrolidin-3-yl)-3-(2-phenyl-2,4,5,6-tetrahydrocyclopenta[c]pyrazol-3-yl)thiourea] and `COCCN1C[C@@H](NC(=O)Nc2c3c(nn2-c2cccc(F)c2)CCC3)[C@H](c2ccccc2)C1` (relative stereo) [Example 22, 1-(2-(3-fluorophenyl)-2,4,5,6-tetrahydrocyclopenta[c]pyrazol-3-yl)-3-(trans-1-(2-methoxyethyl)-4-phenylpyrrolidin-3-yl)urea] cannot be ordered by IC50: < 0.1 µM for the first, < 0.1 µM for the second.

`COCCN1C[C@@H](NC(=O)Nc2c3c(nn2-c2ccc(F)cc2)CCC3)[C@H](c2ccccc2)C1` (relative stereo) [Example 23, 1-(2-(4-fluorophenyl)-2,4,5,6-tetrahydrocyclopenta[c]pyrazol-3-yl)-3-(trans-1-(2-methoxyethyl)-4-phenylpyrrolidin-3-yl)urea] and `COCCN1C[C@@H](NC(=O)Nc2cc(C3CCCC3)nn2-c2ccccc2)[C@H](c2ccccc2)C1` (relative stereo) [Example 24, 1-(3-cyclopentyl-1-phenyl-1H-pyrazol-5-yl)-3-(trans-1-(2-methoxyethyl)-4-phenylpyrrolidin-3-yl)urea] cannot be ordered by IC50: < 0.1 µM for the first, < 0.1 µM for the second.

First: CCn1nc(-c2ccccc2)cc1NC(=O)N[C@@H]1CN(CCOC)C[C@H]1c1ccccc1 (relative stereo) [Example 25, 1-(1-ethyl-3-phenyl-1H-pyrazol-5-yl)-3-(trans-1-(2-methoxyethyl)-4-phenylpyrrolidin-3-yl)urea]
Second: COCCN1C[C@@H](NC(=O)Nc2c3c(nn2-c2ccccc2)CCCC3)[C@H](c2ccccc2)C1 (relative stereo) [Example 26, 1-(trans-1-(2-methoxyethyl)-4-phenylpyrrolidin-3-yl)-3-(2-phenyl-4,5,6,7-tetrahydro-2H-indazol-3-yl)urea]
The IC50 of the first is higher: 0.1 to 1 µM for the first, < 0.1 µM for the second. The second is the more potent here.

First: COCCN1C[C@@H](NC(=O)Nc2c3c(nn2C)CCC3)[C@H](c2ccccc2)C1 (relative stereo) [Example 27, 1-(trans-1-(2-methoxyethyl)-4-phenylpyrrolidin-3-yl)-3-(2-methyl-2,4,5,6-tetrahydrocyclopenta[c]pyrazol-3-yl)urea]
Second: COCCN1C[C@@H](NC(=O)Nc2c(-c3ccccc3)c(C)nn2C)[C@H](c2ccccc2)C1 (relative stereo) [Example 28, 1-(1,3-dimethyl-4-phenyl-1H-pyrazol-5-yl)-3-(trans-1-(2-methoxyethyl)-4-phenylpyrrolidin-3-yl)urea]
The IC50 of the first is higher: 1 to 10 µM for the first, 0.1 to 1 µM for the second. The second is the more potent here.

First: COCCN1C[C@@H](NC(=O)Nc2cc(C(C)(C)C)nn2-c2ccccc2C)[C@H](c2ccccc2)C1 (relative stereo) [Example 29, 1-(3-tert-butyl-1-o-tolyl-1H-pyrazol-5-yl)-3-(trans-1-(2-methoxyethyl)-4-phenylpyrrolidin-3-yl)urea]
Second: COCCN1C[C@@H](NC(=O)Nc2cc(C(C)(C)C)nn2-c2cccc(C)c2)[C@H](c2ccccc2)C1 (relative stereo) [Example 30, 1-(3-tert-butyl-1-m-tolyl-1H-pyrazol-5-yl)-3-(trans-1-(2-methoxyethyl)-4-phenylpyrrolidin-3-yl)urea]
The IC50 of the first is higher: 1 to 10 µM for the first, < 0.1 µM for the second.
